Data taken from the NIST ThermoML archive (doi:10.1016/j.jct.2018.11.011).

Experiment: molar heat capacity at constant pressure
Conditions: 101.33 kPa, Crystal, Small (less than 1 g) adiabatic calorimetry

O=C([O][Sb]([c]1ccccc1)([c]1ccccc1)([c]1ccccc1)[c]1ccccc1)c1ccccc1 [tetraphenylantimony benzoate]
Conditions | molar heat capacity at constant pressure [J/K/mol]
5 K | 1.72
5.54 K | 2.34
5.81 K | 2.55
6.27 K | 3.24
6.56 K | 3.56
6.92 K | 4.25
7.71 K | 5.93
7.98 K | 6.39
8.34 K | 7.12
8.69 K | 7.77
9.05 K | 8.56
9.58 K | 9.73
10 K | 10.9
10.05 K | 10.9
10.43 K | 12
10.82 K | 13.1
11.21 K | 14.2
11.44 K | 14.8
11.66 K | 15.5
12.08 K | 16.7
12.66 K | 18.5
13.36 K | 20.5
14.03 K | 22.5
14.57 K | 24.4
15 K | 25.6
15.26 K | 26.4
15.94 K | 28.6
16.62 K | 30.87
17.29 K | 33.05
17.96 K | 35.26
18.62 K | 37.36
18.8 K | 38.09
19.31 K | 39.63
19.97 K | 41.7
20 K | 41.81
20.6 K | 43.6
22.51 K | 49.65
25 K | 57.77
25.94 K | 60.95
29.45 K | 71.99
30 K | 73.7
31.45 K | 78.36
33 K | 82.85
33.62 K | 84.64
35 K | 88.8
35.87 K | 91.21
36.5 K | 93.12
40 K | 102.8
40.06 K | 103.7
43 K | 111
45 K | 115.8
46.68 K | 120.9
49.76 K | 127.9
50 K | 128
53.38 K | 136.9
57.02 K | 145.6
60 K | 151.4
60.66 K | 154.2
64.31 K | 162
67.97 K | 169.5
70 K | 174.2
71.63 K | 177
75.29 K | 185.6
78 K | 192
80 K | 195.9
82.52 K | 200.4
83.53 K | 202.5
85.67 K | 207
88.37 K | 212.3
90 K | 214.8
90.22 K | 215.5
92.48 K | 218.9
93.76 K | 221
95.63 K | 223.7
99.16 K | 228.6
100 K | 229.7
102.7 K | 234
106.23 K | 240
109.78 K | 244.9
113.32 K | 250.2
116 K | 255
119.8 K | 262
120 K | 262
123.36 K | 267.2
126.75 K | 273.3
128 K | 275.2
132.8 K | 282.4
136 K | 287
139.71 K | 293.3
140 K | 293.6
144.47 K | 301.3
146.16 K | 303.1
151.28 K | 310.8
155 K | 315
158.48 K | 321.9
160 K | 324.2
161 K | 326
164.87 K | 332.4
168.1 K | 336.4
169.28 K | 338.2
172.52 K | 344.3
